From paper PMC6220303 (EMBO Molecular Medicine, 2018)
Entries after “also recorded” stand apart in the source; their conditions may differ. Where two headings read alike, the source gives them in different places.

How the values were obtained:
[1] = pKa determination; type: physicochemical; conditions: cyclic amidine
Procedure: (§1) Cellular Aβ release assays were done in CHO cells stably transfected with human wild‐type and human APP were done as described (Neumann et al, 2015). Determinations of logD, pKa, and binding to brain homogenates were done internally at Novartis, Basel. Plasma protein binding was determined by equilibrium dialysis using diluted plasma from the corresponding species. MDR‐1‐MDCK cells were obtained from Prof. A. Berns, Netherlands Cancer Institute, Amsterdam NL, and bi‐directional transport measurements were done as described (Rueeger et al, 2011). Receptor binding assays were done against an internal receptor panel and externally at Ricerca Biosciences, Peitou, Taiwan. In vitro binding and cellular patch clamp assays for hERG were done at Preclinical Safety, Novartis, Basel.

[2] = system: dogs; test: Long-term toxicology studies in dogs; type: in vivo, dog
Procedure: In long‐term toxicology studies, dose‐limiting non‐specific central nervous system (CNS) effects (including impaired mobility and tremor) occurred in dogs at ≥ 30 mg/kg/day and in male rats (adverse effects only observed at doses ≥ 500 mg/kg/day). […] After CNP520 withdrawal, all changes either trended toward being, or were, fully reversible. The organs that were affected by drug toxicity in these animal studies either were not relevant to the clinical target population or the toxicities occurred at a dose substantially higher than the efficacious clinical dose.
(§2) In vivo animal toxicity studies were performed according to ICH guidance for industry M3(R2) and conformed to the Institutional Animal Care and Use Guidelines for the contract laboratory and sponsor. […] Recovery was assessed after a 12‐week treatment‐free period. Beagle dogs from Marshall BKU UK, 11 months of age, were given 0 (vehicle), 5, 15, or 30 mg/kg/day for 39 weeks. Vehicle consisted of 0.5% (w/v) methylcellulose (1,500 cPS) in 0.1% (v/v) polysorbate 80 (Tween®‐80) in reverse osmosis water. At necropsy, tissues were immersion fixed in 10% neutral‐buffered formalin or modified Davidson's solution and then processed by routine methods to paraffin block and hematoxylin–eosin (H&E)‐stained histologic slides.

[3] = system: rats; test: Long-term toxicology studies in rats; type: in vivo, rat
Procedure: as §2

[4] = system: C57/BL6 mice; test: Hair depigmentation study, 8 weeks dosing; type: in vivo, mouse
Procedure: Compounds were either mixed in feed or given as a suspension orally. […] Vehicle or compounds were given orally in a volume of 10 ml/kg once daily (mornings) for 8 weeks. Vehicle: 0.1% Tween‐80 in 0.5% methylcellulose in water. […] The vehicle group was treated with food pellets containing no compound. The β1 antibody was dosed 0.5 mg/kg body weight, once weekly intraperitoneally, diluted in 90 nM NaCl, 50 nM Tris pH 7.1.

[5] = type: in vivo; conditions: rat, 15.4 mg/kg oral
[6] = system: Aβ40 and Aβ42 in dog CSF; test: Aβ40 and Aβ42 in dog CSF after single oral dose, PK/PD modeling; type: in vivo; conditions: Canis lupus familiaris
Procedure: Therefore, we measured Aβ40 in rat brain tissue 4 h after oral administration over a range of doses. […] In addition, the effect‐over‐time curves for brain and CSF almost completely superimposed, showing that Aβ pharmacodynamics in CSF mirrors very well that in brain tissue.
Electrochemiluminescence immunoassays (Mesoscale Diagnostics, Rockville, MD, USA) were used to determine Aβ38, Aβ40, Aβ42, sAPPα, and sAPPβ. For studies in normal mice and rats, the endogenous Aβ40 was extracted from the brain homogenate with 1% Triton X‐100, and the 4G8‐based assay kit was used for quantification according to the manufacturer's instructions. CSF was collected from the cisterna magna and also analyzed using the 4G8 kit. For studies in dogs, CSF was collected via a ventricular port, and the 6E10‐based Mesoscale Diagnostics kit for Aβ was used. For studies in APP23 mice, Aβ40 and Aβ42 were determined after extraction with 70% formic acid and subsequent neutralization.

[7] = system: healthy participants ≥ 60 years; test: Adverse events after once-daily dosing over two weeks (Appendix Table S7); type: in vivo, human
Text: For further details, see the Appendix Table S10 in Appendix and the accompanying clinical protocols synopsis (Appendix Table S11).
Appendix Table S3. Overview of completed clinical studies with CNP520
Study description Population No. of Participants Dose/Frequency […]
First-in-human, randomized, 18-55 yrs 38 / 14 Single dose (10, 30, 90, […]
controlled, single and multiple CNP520 vs placebo) ascending oral dose study to Single dose (10, 90, 300,

[8] = molecular target: Lipoxygenase 5-LO (Homo sapiens, UniProt P09917); test: Receptor panel; type: biochemical; conditions: read-out: Inhibition at 10 µM
Procedure: as §1

[9] = molecular target: Monoamine transporter VMAT2 (Oryctolagus cuniculus, UniProt G1T2K3); test: Receptor panel binding; set-up: species or system Rabbit; conditions: read-out: Inhibition at 10 µM
Procedure: as §1

[10] = Shelf life of the clinical capsule form; type: physicochemical; conditions: kept refrigerated
[11] = Animal toxicology studies, any species; type: in vivo
Procedure: as §2

[12] = system: APP23 mice; conditions: APP23, mouse, in vivo, 3 months

Sequence of Monoamine transporter VMAT2 (G1T2K3 1-509): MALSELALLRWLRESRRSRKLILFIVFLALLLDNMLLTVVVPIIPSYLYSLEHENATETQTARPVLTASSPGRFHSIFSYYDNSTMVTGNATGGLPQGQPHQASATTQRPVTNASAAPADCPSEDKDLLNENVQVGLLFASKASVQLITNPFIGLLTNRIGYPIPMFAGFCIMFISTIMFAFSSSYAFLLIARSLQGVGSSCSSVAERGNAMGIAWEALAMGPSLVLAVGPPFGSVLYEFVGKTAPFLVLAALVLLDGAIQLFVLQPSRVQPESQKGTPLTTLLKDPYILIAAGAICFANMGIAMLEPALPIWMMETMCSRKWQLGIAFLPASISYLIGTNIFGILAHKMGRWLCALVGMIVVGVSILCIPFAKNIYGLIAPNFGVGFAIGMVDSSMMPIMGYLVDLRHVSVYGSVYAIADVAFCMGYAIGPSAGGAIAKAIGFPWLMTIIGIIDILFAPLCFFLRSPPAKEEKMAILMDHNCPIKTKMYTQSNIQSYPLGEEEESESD
Sequence of Lipoxygenase 5-LO (P09917 whole entry): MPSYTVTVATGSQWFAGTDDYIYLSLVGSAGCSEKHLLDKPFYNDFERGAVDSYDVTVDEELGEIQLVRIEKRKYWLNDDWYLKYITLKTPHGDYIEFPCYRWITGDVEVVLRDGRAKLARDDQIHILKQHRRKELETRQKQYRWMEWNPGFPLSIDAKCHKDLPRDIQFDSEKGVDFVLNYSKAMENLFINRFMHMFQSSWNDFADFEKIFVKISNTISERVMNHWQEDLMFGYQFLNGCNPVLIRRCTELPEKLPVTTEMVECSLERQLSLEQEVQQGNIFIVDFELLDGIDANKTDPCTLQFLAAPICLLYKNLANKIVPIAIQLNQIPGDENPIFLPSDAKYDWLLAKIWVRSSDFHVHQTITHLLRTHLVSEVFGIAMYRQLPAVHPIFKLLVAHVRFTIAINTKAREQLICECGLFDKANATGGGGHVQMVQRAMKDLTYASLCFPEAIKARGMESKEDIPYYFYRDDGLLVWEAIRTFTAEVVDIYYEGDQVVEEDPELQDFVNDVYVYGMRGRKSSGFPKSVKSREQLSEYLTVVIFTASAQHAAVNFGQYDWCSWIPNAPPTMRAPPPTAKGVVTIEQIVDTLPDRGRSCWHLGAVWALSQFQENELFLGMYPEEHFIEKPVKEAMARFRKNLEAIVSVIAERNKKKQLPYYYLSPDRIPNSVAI

C[C@@]1(c2nc(NC(=O)c3ncc(C(F)(F)F)cc3Cl)ccc2F)CO[C@@](C)(C(F)(F)F)C(N)=N1 [CNP520]
pKa [1]: 7.2 | No Adverse Effect Level ([2]; dog, authors' response in review file): 30 mg/kg/day | dose with dose-limiting non-specific CNS effects (impaired mobility, tremor) ([2]; dogs, long-term toxicology): ≥ 30 mg/kg/day | dose with delayed ovulation and slightly reduced fecundity and fertility indices ([3]; female rats): ≥ 30 mg/kg/day | safety margin: exposure at NOAEL vs exposure at 85 mg in Phase IIa ([3]; female rats): ≥ 7 fold | fecundity and fertility indices ([3]; female rats at ≥ 30 mg/kg/day, 90% in control animals): 74% | safety margin: exposure at NOAEL vs exposure at 85 mg in Phase IIa ([3]; male rats): ≥ 5 fold | dose with adverse (CNS/clinical) effects ([3]; male rats, long-term toxicology): ≥ 500 mg/kg/day | changes in other pigmented organs (hair follicle, choroid, retina pigmented epithelium) by histopathology ([4]; C57/BL6 mice, 8 weeks): Neither did we observe any changes in other pigmented organs | Aβ40 reduction in the brain ([4]; at doses with no change in hair color): more than 90% | hair depigmentation / change in hair color ([4]; male C57/BL6 mice, 8 weeks oral once daily): No change in hair color | peak concentration of unbound CNP520 in the brain [5]: 50 nM | IC50 ([6]; read-out: IC50 in vivo (free ED50), unbound CNP520 in dog blood, PK/PD modeling estimate): 3.3 ± 0.03 nM | IC50 ([6]; read-out: IC50 in vivo, total CNP520 in dog blood, PK/PD modeling estimate): 103 ± 12.3 nM | AE incidence: Respiratory, thoracic and mediastinal disorders ([7]; 10 mg once daily, N = 9): 1 (11.1) n (%) | Participants with any AE(s) ([7]; 10 mg once daily, N = 9): 6 (66.7) n (%) | AE incidence: Renal and urinary disorders ([7]; 30 mg once daily, N = 9): 0 (0.0) n (%) | AE incidence: Ear and labyrinth disorders ([7]; 300 mg once daily, N = 8): 0 (0.0) n (%) | inhibition at 10 µM [8]: 66% | inhibition at 10 µM [9]: 79% | shelf life of the capsule form [10]: 24 months | morphological changes in CNS, peripheral nervous system, liver, endocrine pancreas, retina, skin ([11]; any species): No morphological changes were identified | depigmentation in long-term animal toxicology studies ([11]; including 9 months dosing in dogs): no signs of depigmentation; also recorded: did not result in hair depigmentation | retinal degeneration ([11]; long-term toxicological studies in rats and dogs): no retinal degeneration | Hemorrhage (H & E staining) % affected [12]: 7% | Hemorrhage (H & E staining) Grade 1, number of animals affected [12]: 1 | Hemorrhage (H & E staining) Grade 2, number of animals affected [12]: 0 | Hemosiderin (Perl’s staining) % affected [12]: 47% | Hemosiderin (Perl’s staining) Grade 1, number of animals affected [12]: 7 | Hemosiderin (Perl’s staining) Grade 2, number of animals affected [12]: 0
